Measured values from ChEMBL document CHEMBL1136864, “A one step/one pot synthesis of N,N-bis(phosphonomethyl)amino acids and their effects on adipogenic and osteogenic differentiation of human mesenchymal stem cells” (Bioorg Med Chem, 2009).
The source made the active and inactive calls. The calls are words filed in the database; no cut-off is given here.

Key:
[1] = tested on: MADS; test: Effect on adipogenic differentiation of human MADS cells into adipocytes at 300 nM after 14 days by Oil red O staining; format: functional, cell-based
[2] = Toxicity in human MADS cells assessed as inhibition of osteoblast formation at 100 nM after 14 days by Von Kossa staining; format: cell-based; conditions: 336 h, 0.1 µM
[3] = Cytotoxicity against human MADS cells at 300 nM; format: cell-based; conditions: 0.3 µM
[4] = tested on: MADS; test: Effect on adipogenic differentiation of human MADS cells into adipocytes at 100 nM after 14 days by Oil red O staining; format: functional, cell-based
[5] = Cytotoxicity against human MADS cells at 0.1 to 100 nM; format: cell-based; conditions: 0.1 µM
[6] = Toxicity in human MADS cells assessed as inhibition of osteoblast formation at 300 nM after 14 days by Von Kossa staining; format: cell-based; conditions: 336 h, 0.3 µM
[7] = tested on: MADS; test: Effect on adipogenesis in human MADS cells assessed as GPDH activity at 100 nM; format: functional, cell-based
[8] = Inhibition of osteogenesis in human MADS cells assessed as ALP activity at 300 nM; format: cell-based; conditions: 0.3 µM
[9] = tested on: MADS; test: Effect on adipogenesis in human MADS cells assessed as GPDH activity at 300 nM; format: functional, cell-based
[10] = tested on: MADS; test: Induction of osteogenesis in human MADS cells assessed as ALP activity at 0.1 to 100 nM; format: functional, cell-based
[11] = Inhibition of osteogenesis in human MADS cells assessed as ALP activity at 100 nM; format: cell-based; conditions: 0.1 µM
[12] = Cytotoxicity against human MADS cells at 100 nM; format: cell-based; conditions: 0.1 µM

Activity [8]	Activity [11]	SMILES	Activity [1]	Activity [2]	Activity [3]	Activity [4]	Activity [5]	Activity [6]	Activity [7]	Activity [9]	Activity [10]	Activity [12]
Active	Active	O=C(O)C1(N(CP(=O)(O)O)CP(=O)(O)O)CCCC1	inactive	Toxic	Non-toxic	inactive	Non-toxic	Toxic	inactive	inactive	Active	Non-toxic
Active	Active	O=C(O)C1(N(CP(=O)(O)O)CP(=O)(O)O)CCCCC1	inactive	Toxic	Non-toxic	inactive	Non-toxic	Toxic	inactive	inactive	Active	Non-toxic
		NCCCC(O)(P(=O)(O)O)P(=O)(O)O								inactive	Active	
Active	Active	CC(C)(C(=O)O)N(CP(=O)(O)O)CP(=O)(O)O	inactive	Toxic	Non-toxic	inactive	Non-toxic	Toxic	inactive	inactive	Active	Non-toxic
